This note sets out measurements from the supplement of paper PMC11061612.

What all share (assay): combination Emax (second highest fraction inhibited in the dose matrix, 72 h); higher = more inhibition; extreme values may be limits of the assay
In assay [1] the test system is KYSE-220 (Esophageal Squamous Cell Carcinoma). An outline of the steps: (§1)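 Bliss excess equals the observed combination effect minus the expected value EA + EB − EA·EB, where EA and EB are the effects of each agent alone. Combination Emax is the second-highest inhibition within the matrix. Inhibition was scaled from CellTiter-Glo 2.0 luminescence, with 0 set by vehicle wells and 1 by blank wells, after 72 hours of two-drug dosing of cells plated in 1536-well plates.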

Assay [2] has as its system CGTH-W-1 (Thyroid Gland Carcinoma). Put shortly: as §1
Assay [3] concerns 22RV1 (Prostate Carcinoma). An outline of the steps:
as §1

For assay [4], the system named is GA-10 (Burkitt's Lymphoma). An outline of the steps:
as §1

The next assay has as its system 5637 (Bladder Carcinoma). Put shortly: as §1
Another assay has as its system A204 (Rhabdomyosarcoma). Put shortly:
as §1

Assay [5] has as its system ESO26 (Esophageal Adenocarcinoma). Put shortly: as §1
The test system of the next assay is COLO-792 (Melanoma). Put shortly: as §1
Assay [6] deals with Jurkat (T-Lymphoblastic Leukemia). Put shortly: as §1
The next assay has as its system AU565 (Breast Carcinoma). An outline of the steps:
as §1

Assay [7] has as its system OACp4C (Esophageal Adenocarcinoma). Put shortly: as §1
A further assay deals with EW-16 (Ewing's Sarcoma). An outline of the steps:
as §1

Assay [8] relates to NCI-H2228 (Lung Adenocarcinoma). Put shortly:
as §1

The test system of assay [9] is JIMT-1 (Breast Carcinoma). Put shortly: as §1
In assay [10] the test system is A2780 (Ovarian Carcinoma). Put shortly:
as §1

The test system of assay [11] is EPLC-272H (Other Solid Carcinomas). An outline of the steps: as §1
The subject of assay [12] is NCI-H1703 (Squamous Cell Lung Carcinoma). An outline of the steps: as §1
In a further assay the test system is A101D (Melanoma). Put shortly: as §1
Assay [13] concerns NCI-H1651 (Lung Adenocarcinoma). An outline of the steps:
as §1

Assay [14] has as its system huH-1 (Hepatocellular Carcinoma). Put shortly:
as §1

As for `NC1(C(=O)N[C@@H](CCO)c2ccc(Cl)cc2)CCN(c2ncnc3[nH]ccc23)CC1` [Capivasertib] + CCN(CCO)CCCOc1ccc2c(Nc3cc(CC(=O)Nc4cccc(F)c4)[nH]n3)ncnc2c1 [AZD2811] (first compound max 10 µM, 7x7, partner max 1 µM), the “combination Emax” value in assay [1] came out at 0.623; in assay [2], 0.354; in assay [3], 0.544; in [4], 0.918; in the assay on 5637 (Bladder Carcinoma) it was 0.572; in the assay on A204 (Rhabdomyosarcoma), 0.489. Also, the “combination Emax” value in assay [5] worked out at 0.52; in the assay on COLO-792 (Melanoma), 0.661; in assay [6] it was 0.717; in the assay on AU565 (Breast Carcinoma), 0.819; in assay [7] it was 0.897; in the assay on EW-16 (Ewing's Sarcoma), 0.634. For the same compound, the “combination Emax” value turned out to be 0.533 in assay [8]; 0.284 in assay [9]; 0.812 in assay [10]; 0.708 in assay [11]; 0.678 in assay [12]; 0.552 in the assay on A101D (Melanoma). In addition, the entries for the “combination Emax” value in assay [13] and in assay [14] were 0.203 and 0.384, respectively.

As for `Cc1c2c(nn1C)CSCc1cc(n(C)n1)CSc1cc(c3ccccc3c1)OCCCc1c(C(=O)O)n(C)c3c-2c(Cl)ccc13` [AZD5991] + Cn1cnc2c(F)c(Nc3ccc(Br)cc3Cl)c(C(=O)NOCCO)cc21 [Selumetinib] (first compound max 1 µM, 7x7, partner max 3 µM), the “combination Emax” value in [1] is 0.304; in assay [2], 0.181; in assay [3], 0.498; in assay [4], 0.751; in the assay on 5637 (Bladder Carcinoma), 0.37; in the assay on A204 (Rhabdomyosarcoma), 0.459. The “combination Emax” value in assay [5] worked out at 0.274; in the assay with COLO-792 (Melanoma) it was 1; in assay [6], 0.927; with AU565 (Breast Carcinoma), 1; in [7], 0.835; in the assay with EW-16 (Ewing's Sarcoma), 0.258. Besides, the “combination Emax” value in assay [8] was determined as 0.249; in [9], 0.284; in assay [10] it was 0.538; in assay [11] it was 0.94; in assay [12], 0.856; in the assay with A101D (Melanoma), 1. Besides, the “combination Emax” value is 0.218 in assay [13] and 0.152 in [14].

As for `COc1cccc(OCCCN)c1-c1cc(Nc2cnc(C#N)cn2)n[nH]1` [Prexasertib] + O=C(c1cc(Cc2n[nH]c(=O)c3ccccc23)ccc1F)N1CCN(C(=O)C2CC2)CC1 [Olaparib] (first compound max 1 µM, 7x7, partner max 10 µM), the “combination Emax” value in assay [1] worked out at 0.947; in [2] it was 0.714; in assay [3] it was 0.516; in assay [4], 0.987; in the assay on 5637 (Bladder Carcinoma), 0.852; in the assay on A204 (Rhabdomyosarcoma) it was 0.584. In addition, the “combination Emax” value was 0.56 in [5]; 0.322 with COLO-792 (Melanoma); 0.994 in assay [6]; 0.735 in the assay with AU565 (Breast Carcinoma); 0.642 in assay [7]; 0.793 with EW-16 (Ewing's Sarcoma). Further, the “combination Emax” value stood at 0.726 in assay [8]; 0.788 in assay [9]; 0.71 in [10]; 0.894 in assay [11]; 0.978 in assay [12]; 0.788 in the assay on A101D (Melanoma). The “combination Emax” value turned out to be 0.797 in [13] and 0.778 in [14].

Take `Cc1c2c(nn1C)CSCc1cc(n(C)n1)CSc1cc(c3ccccc3c1)OCCCc1c(C(=O)O)n(C)c3c-2c(Cl)ccc13` [AZD5991] + Cc1cc2ncnn2cc1Nc1ncc2c(n1)n(C1CCOCC1)c(=O)n2C [AZD7648] (first compound max 1 µM, 7x7, partner max 10 µM): the “combination Emax” value in assay [1] is 0.218; in assay [2], 0.181; in [3], 0.575; in assay [4], 0.851; in the assay on 5637 (Bladder Carcinoma), 0.233; in the assay on A204 (Rhabdomyosarcoma) it was 0.659. Also, the “combination Emax” value in assay [5] came out at 0.198; with COLO-792 (Melanoma) it was 1; in [6], 0.951; with AU565 (Breast Carcinoma), 1; in [7] it was 0.485; in the assay on EW-16 (Ewing's Sarcoma) it was 0.299. The “combination Emax” value in assay [8] amounted to 0.354; in [9], 0.255; in assay [10], 0.751; in assay [11] it was 0.94; in assay [12] it was 0.891; in the assay with A101D (Melanoma), 0.997. For the same compound, the “combination Emax” value was determined as 0.33 in assay [13] and 0.337 in assay [14].

For the compound `CCN(CCO)CCCOc1ccc2c(Nc3cc(CC(=O)Nc4cccc(F)c4)[nH]n3)ncnc2c1` [AZD2811] + O=C(c1cc(Cc2n[nH]c(=O)c3ccccc23)ccc1F)N1CCN(C(=O)C2CC2)CC1 [Olaparib] (first compound max 1 µM, 7x7, partner max 10 µM), the “combination Emax” value was 0.214 in assay [1]; 0.291 in assay [2]; 0.337 in assay [3]; 0.595 in assay [4]; 0.622 in the assay with 5637 (Bladder Carcinoma); 0.387 in the assay on A204 (Rhabdomyosarcoma). Moreover, the “combination Emax” value in [5] was 0; in the assay with COLO-792 (Melanoma), 0.374; in [6], 0.384; in the assay on AU565 (Breast Carcinoma), 0.214; in assay [7], 0.408; in the assay on EW-16 (Ewing's Sarcoma), 0.626. The “combination Emax” value in assay [8] came to 0.268; in [9] it was 0.0806; in assay [10], 0.717; in [11], 0.204; in assay [12] it was 0.519; in the assay with A101D (Melanoma) it was 0.261. Besides, the “combination Emax” value was 0.248 in assay [13] and 0.415 in assay [14].

For `Cn1cnc2c(F)c(Nc3ccc(Br)cc3Cl)c(C(=O)NOCCO)cc21` [Selumetinib] + C=CCn1c(=O)c2cnc(Nc3ccc(N4CCN(C)CC4)cc3)nc2n1-c1cccc(C(C)(C)O)n1 [AZD1775] (first compound max 10 µM, partner max 1 µM), the “combination Emax” value in assay [1] was 0.664; in assay [2], 0.0375; in [3], 0.406; in [4], 1; in the assay with 5637 (Bladder Carcinoma), 0.85; with A204 (Rhabdomyosarcoma) it was 0.276. The “combination Emax” value in [5] was 0.678; in the assay with COLO-792 (Melanoma), 0.694; in [6], 0.875; in the assay on AU565 (Breast Carcinoma), 0.644; in assay [7] it was 0.909; in the assay on EW-16 (Ewing's Sarcoma) it was 0.402. For the same compound, the “combination Emax” value was found to be 0.453 in [8]; 0.6 in assay [9]; 0.799 in assay [10]; 0.857 in assay [11]; 0.944 in assay [12]; 0.64 with A101D (Melanoma). Besides, the “combination Emax” value in [13] is 0.574; in [14], 0.48.
